Tests used:
[1] = Exposure to relative humidity (RH) stress, XRPD afterwards; type: physicochemical; details: 95% RH for 8 days
Excerpt: X-Ray Powder Diffraction (XRPD): The Rigaku Smart-Lab X-ray diffraction system was configured for reflection Bragg-Brentano geometry using a line source X-ray beam. The x-ray source is a Cu Long Fine Focus tube that was operated at 40 kV and 44 ma. That source provides an incident beam profile at the sample that changes from a narrow line at high angles to a broad rectangle at low angles. Beam conditioning slits are used on the line X-ray source to ensure that the maximum beam size is less than 10 mm both along the line and normal to the line. The Bragg-Brentano geometry is a para-focusing geometry controlled by passive divergence and receiving slits with the sample itself acting as the focusing component for the optics. The inherent resolution of Bragg-Brentano geometry is governed in part by the diffractometer radius and the width of the receiving slit used. Typically, the Rigaku Smart-Lab is operated to give peak widths of 0.1° 2θ or less. The axial divergence of the X-ray beam is controlled by 5.0-degree Soller slits in both the incident and diffracted beam paths. […] Each sample was analyzed from 2 to 40° 2θ using a continuous scan of 6° 2θ per minute with an effective step size of 0.02° 2θ. In the case of high resolution XRPD, samples were analyzed with a scan rate of 1° 2θ per minute with a sample spin rate of 50 rpm. […]

[2] = Visual water solubility test of the cocrystal (0.6 mg in 3 mL water, shaken and sonicated); type: physicochemical
Method: 0.6 mg of the cocrystal was placed in a glass vial and 3 mL of water was added. The slurry was immediately shaken and sonicated.

SMILES: C=C(C)[C@@H]1CCC(C)=C[C@H]1c1c(O)cc(CCCCC)cc1O.O=C(O)[C@@H]1CCCCN1 [1:1 cannabidiol:L-pipecolic acid cocrystal]
- Solid-form stability under humidity stress (XRPD pattern after stress) [1]: cocrystal disassociated during the experiment
- Visual dissolution in water ([2]; 0.6 mg of cocrystal in 3 mL of water, shaken and sonicated): none of the solid dissolved
- Water solubility ([2]; water): less than 0.2 mg/mL

From patent publication US20220117912A1, “L-PIPECOLIC ACID COCRYSTAL OF CANNABIDIOL” (EBERS TECH INC., priority 2019, published 2022)
